#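 Interpolation was linear, between the two tested concentrations surrounding the appropriate level; five concentrations were tested over 48 hours in 96-well plates. Abbreviation: GI50, concentration required for 50% inhibition of growth. TGI: total growth inhibition.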
# How the values were obtained:
# Experiment in all cases: growth of human tumour cells (NCI), 48 h
# NCI-H226 lung = tested on: NCI-H226 lung
# NCI-H460 lung = tested on: NCI-H460 lung
# NCI-H522 lung = tested on: NCI-H522 lung
# OVCAR-5 ovarian = tested on: OVCAR-5 ovarian
# SF-295 CNS = tested on: SF-295 CNS
# SK-OV-3 ovarian = tested on: SK-OV-3 ovarian
# SR leukemia = tested on: SR leukemia
# SW-620 colon = tested on: SW-620 colon
# UACC-62 melanoma = tested on: UACC-62 melanoma
# A498 renal = tested on: A498 renal
SMILES,GI50 (NCI-H226 lung) [µM],TGI (NCI-H226 lung) [µM],GI50 (NCI-H460 lung) [µM],TGI (NCI-H460 lung) [µM],GI50 (NCI-H522 lung) [µM],TGI (NCI-H522 lung) [µM],GI50 (OVCAR-5 ovarian) [µM],TGI (OVCAR-5 ovarian) [µM],GI50 (SF-295 CNS) [µM],TGI (SF-295 CNS) [µM],GI50 (SK-OV-3 ovarian) [µM],TGI (SK-OV-3 ovarian) [µM],GI50 (SR leukemia) [µM],TGI (SR leukemia) [µM],GI50 (SW-620 colon) [µM],TGI (SW-620 colon) [µM],GI50 (UACC-62 melanoma) [µM],TGI (UACC-62 melanoma) [µM],TGI (A498 renal) [µM],GI50 (A498 renal) [µM]
CC1=C(C(=O)Nc2ccc(Cl)c(Cl)c2)C(c2ccccc2O)NC(=O)N1 (stereo not given),21.3,> 50,> 50,> 50,> 50,> 50,> 50,> 50,40.3,> 50,> 50,> 50,39.9,> 50,> 50,> 50,35.1,> 50,,
FC1OC2OC1C(OCc1ccccc1)C(OCc1ccccc1)C2OCc1ccccc1 (stereo not given),,> 100,,> 100,,,,> 100,,> 100,,> 100,,,,> 100,,> 100,> 100,
CN1CCc2c1nc(-c1ccc([N+](=O)[O-])cc1)c1c2N(C)CC1,,,,> 100,,,,> 100,,> 100,,> 100,,,,> 100,,> 100,> 100,
S=c1nc(-c2ccnc(-c3nc(=S)[nH][nH]3)c2)[nH][nH]1,,> 100,,> 100,,> 100,,> 100,,> 100,,> 100,,,,> 100,,> 100,> 100,
COc1ccc(S(=O)(=O)N(C)CC(=O)O)cc1,,> 100,,> 100,,> 100,,> 100,,> 100,,> 100,,,,> 100,,> 100,> 100,
CCCCCCCCCCCCCCCCOC(=O)c1cc(O)cc(C(=O)OCCCCCCCCCCCCCCCC)c1,,> 100,,> 100,,> 100,,> 100,,> 100,,> 100,,,,> 100,,> 100,> 100,
O=C(Nc1cccc(NC(=O)c2cc(=O)c3ccccc3o2)n1)c1cc(=O)c2ccccc2o1,,,,> 100,,48.3,,> 100,,,,> 100,,,,> 100,,> 100,> 100,
COc1cc2cc3c4c(cc(OC)c(OC)c4c2cc1OC)CCN3C(=O)CCC(=O)NCCCN(C)C,,> 100,,> 100,,45.8,,,,> 100,,> 100,,62,,> 100,,> 100,,
OCNCCNc1nc2ccccc2c2[nH]c3ccccc3c12,1.47,5.88,1.46,5.8,1.55,> 50,0.582,6.75,1.41,5.97,,,0.902,> 50,0.366,2.22,2,7.5,4.46,1.55
Nc1ccc2c(c1)c(N)nn2C(=O)Nc1ccc(Cc2ccccc2)cc1,16.1,38.3,4.64,23.8,14.7,39.6,22.6,60.5,3.96,15.1,15.3,37.7,,,4.48,18.7,2.9,12.6,28.4,14.4
Cc1nc(N)nc2ccccc12,,,,> 100,,> 100,,> 100,,> 100,,> 100,,> 100,,> 100,,> 100,> 100,
COC(=O)CCCC(=O)NC1=C(NCc2ccccc2)C(=O)c2ccccc2C1=O,,,,> 100,,> 100,,> 100,,,,> 100,,> 100,,> 100,,> 100,> 100,
COc1cc2c(c(OC)c1OC)-c1ccc(SC)c(=O)cc1[C@@H](NC(=O)c1ccc(Cl)cc1)CC2,,< 0.01,,10.5,,,,,,< 0.01,,,,> 100,,41.3,,56.3,< 0.01,
CCOC(=O)C(=O)C(=O)NN(C)C1=NCCN1,,> 100,,> 100,,> 100,,> 100,,> 100,,> 100,,> 100,,> 100,,> 100,,
CCOc1cc(-c2ccc[nH]2)[nH]c1/C=C1\N=C(C)C(C(=O)OC)=C1C,0.0185,0.044,0.0256,1.32,0.0561,0.318,0.0552,1.68,,,0.183,1.57,,,0.0321,1.55,0.024,0.0581,1.92,0.47
Cc1cc([N+](=O)[O-])c(C)c(Br)c1C,,> 100,,> 100,,> 100,,> 100,,> 100,,> 100,,,,> 100,,> 100,> 100,
CC1OC2OC3C(OCC(O)C3O)OC(=O)[C@]34CCC(C)(C)CC3C3=CCC5[C@@]6(C)C[C@H](O)[C@H](OC7OC(CO)C(O)C(O)C7OC7OCC(OC(=O)CC(C)(O)CC(=O)OC1C(OC1OC(CO)C(O)C(O)C1O)C2O)C(O)C7O)[C@@](C)(CO)C6CC[C@@]5(C)[C@]3(C)CC4 (stereo not given in full),,34,,22.7,,22.5,,18.9,,13.4,,22.8,,17,,20.3,,19.2,,
NS(=O)(=O)c1ccc(NNc2c3ccccc3nc3c(C(=O)Nc4ccc(S(=O)(=O)Nc5ncccn5)cc4)cccc23)cc1,,> 25,,> 25,,> 25,,> 25,,> 25,,> 25,,> 25,,> 25,,> 25,,
CC1OC(OC2CCC3(C=O)C4CCC5(C)C(C6=CC(=O)OC6)CCC5(O)C4CCC3(O)C2)C(O)C(O)C1O (stereo not given),,0.000111,,3.81e-05,,4.41e-05,0.0112,,,6.69e-05,,0.000102,,,,8.69e-05,,0.000127,0.000154,
C[C@@H]1C[C@]2(C[C@@H](C)C3[C@@H](CC4(C)[C@@H]5CCC6C(C)(C)OC(=O)C=C[C@]67C[C@@]5(CC[C@]34C)OO7)O2)OC1=O (stereo not given in full),,> 100,,> 100,,90.3,,> 100,,> 100,,> 100,,> 100,,> 100,,> 100,,

SMILES,GI50 (NCI-H226 lung) [µM],TGI (NCI-H226 lung) [µM],GI50 (NCI-H460 lung) [µM],TGI (NCI-H460 lung) [µM],GI50 (NCI-H522 lung) [µM],TGI (NCI-H522 lung) [µM],GI50 (OVCAR-5 ovarian) [µM],TGI (OVCAR-5 ovarian) [µM],GI50 (SF-295 CNS) [µM],TGI (SF-295 CNS) [µM],GI50 (SK-OV-3 ovarian) [µM],TGI (SK-OV-3 ovarian) [µM],GI50 (SR leukemia) [µM],TGI (SR leukemia) [µM],GI50 (SW-620 colon) [µM],TGI (SW-620 colon) [µM],GI50 (UACC-62 melanoma) [µM],TGI (UACC-62 melanoma) [µM],TGI (A498 renal) [µM],GI50 (A498 renal) [µM]
COc1ccc(C2CCc3cc4c(cc3/C2=N/OC(C)=O)OCO4)cc1OC (stereo not given),,43.3,,,,53.4,,> 100,,82.2,,95.3,,,,> 100,,57.7,,
Cc1cc(Cl)cc2c1NC(=O)C2=O (tested in a mixture with another compound),,> 100,,> 100,,86,,> 100,,> 100,,> 100,,,,> 100,,41.6,> 100,
COC(=O)CC(C(C(C)=O)C(=O)OCc1ccccc1)N1C(=O)OCC1c1ccccc1 (stereo not given),,> 100,,> 100,,,,,,> 100,,,,> 100,,> 100,,> 100,> 100,
CSC1=NCC2(S1)c1ccccc1N(C(=O)OC(C)(C)C)C2N1CCCCC1 (stereo not given),> 100,> 100,69.6,> 100,27.5,> 100,> 100,> 100,,,,,,,> 100,> 100,76.6,> 100,> 100,> 100
C=[CH][Sn]([CH]=C)([O]c1cccc2cccnc12)[O]c1cccc2cccnc12,2.95,9.47,3.11,9.01,0.93,3.36,5.16,13.8,5.27,19.4,14.5,44.8,,,1.13,3.44,0.964,2.5,14.2,5.88
CCCCCCCCCCCCOP(N)(=O)OCCCCCCCCCCCC,,,,> 100,,> 100,,,,> 100,,> 100,,> 100,,> 100,,> 100,,
COc1cccc(NC(=O)C(=O)C(C(C)=O)c2nc3ccc(Cl)cc3[nH]c2=O)c1 (stereo not given),,> 100,,> 100,,,,> 100,,> 100,,> 100,,,,> 100,,> 100,> 100,
CSc1ccc(C(=O)C(=O)c2ccc(SC)s2)s1,,> 10,,> 10,,> 10,,> 10,,> 10,,> 10,,> 10,,> 10,,> 10,,
N#CC1C=Cc2ccccc2N1C(=O)Oc1ccccc1 (stereo not given),,> 100,,> 100,,> 100,,> 100,,,,,,> 100,,> 100,,> 100,96.5,
CC(C)C(=O)Oc1cc2c(=O)oc3c(OC(=O)C(C)C)c(OC(=O)C(C)C)cc4c(=O)oc(c1OC(=O)C(C)C)c2c34,,> 100,,> 100,,> 100,,> 100,,> 100,,> 100,,,,> 100,,> 100,> 100,
CCN(CC)CCN(C(=O)C(C)(C)C)c1ccccc1N,,> 100,,> 100,,> 100,,> 100,,> 100,,> 100,,> 100,,> 100,,> 100,,
CC1(C)CC[C@]2(C(N)=O)CC[C@]3(C)C(=CC[C@@H]4[C@@]5(C)C/C(=C/c6ccncc6)C(=O)C(C)(C)[C@@H]5CC[C@]43C)[C@@H]2C1,,,,,2.28,7.76,1.61,3.16,1.67,3.42,3.13,11.9,2.18,6.5,2.04,4.62,1.61,3.34,3.38,1.7
CCCCCCCCCCCCCc1nn[nH]n1,,45.5,,40.6,,42.6,,33,,34.6,,47.3,,,,41.4,,34.6,32.2,
CCOc1ccc(C(CN2CCOCC2)C(C)=O)cc1OC (stereo not given),,32.4,,32.5,,2.46,,33.2,,> 100,,,,,,31.2,,32.8,59,
COC(=O)/C(=N\NC(N)=S)C(C#N)c1ccccc1 (stereo not given),,> 100,,> 100,,> 100,,> 100,,> 100,,> 100,,,,> 100,,> 100,> 100,
C/C=C1\C(=O)OC2CCN3CCC(COC(=O)C(C)(O)C(C)C1O)C23 (stereo not given),,> 100,,> 100,,> 100,,> 100,,> 100,,> 100,,,,> 100,,> 100,> 100,
Cc1ccc(NC(=O)CC(=O)N2N=C(N(CCC#N)c3cccc(C)c3)CC2c2ccccc2)cc1 (stereo not given),,> 100,,> 100,,> 100,,> 100,,> 100,,> 100,,> 100,,> 100,,> 100,,
CCC1CNC(=O)CC1CC(=O)OC (stereo not given),,> 100,,,,> 100,,> 100,,,,> 100,,> 100,,> 100,,> 100,,
COc1ccccc1NC(=O)C(CC(C(=O)Nc1ccccc1OC)/C(C)=N/Nc1ccc([N+](=O)[O-])cc1[N+](=O)[O-])/C(C)=N/Nc1ccc([N+](=O)[O-])cc1[N+](=O)[O-] (stereo not given),,> 100,,> 100,,> 100,,> 100,,> 100,,> 100,,,,> 100,,> 100,> 100,
O=C(Cc1csc2nc(-c3ccc(Br)cc3)cn12)N/N=C/c1ccc(O)cc1,,,56.9,> 100,10.7,34.5,27.6,> 100,12,41.7,52.5,> 100,,,31.5,> 100,9.11,23.5,,
